Series [1] is described as follows: DPPH radical scavenging assay. As to conditions: for DPPH radical scavenging rate: 30 min, absorbance 517 nm. As to the method: DPPH radical assay: DPPH radical scavenging assay was performed according to previous protocol with modifications. DPPH was dissolved in ethanol at the concentration of 200 µM. One hundred microliters of compounds (5, 10, 20, 30, 50 µM) were added to the 96-well plates, and evaded the light preservation for 30 min after addition 100 µL DPPH. Then the absorbance was measured at 517 nm using Thermo Scientific Varioskan Flash. Vitamin C was used as the positive control. The inhibitory effect was expressed as scavenging rate of alleviation and was calculated as follows: Scavenging rate (%) = [1 − (A1 − A2)/A0] × 100 (1) A1 refers to the absorbance with various concentrations of test compounds and DPPH, A2 refers to the absorbance with various concentrations of test compounds and ethanol, A0 refers to the absorbance with distilled water and DPPH.
(In general: DPPH is a stable violet radical that fades when it is reduced.)

Series [2] relates to intracellular ROS production in LPS-stimulated RAW 264.7 macrophages. In words: Intracellular ROS assay in LPS-stimulated RAW 264.7 macrophages (DCFH-DA). In kind it is cell-based, murine. As to conditions: Mus musculus, RAW264.7, LPS 1 μg/mL, 6 h, mean ± SD, n=3, read-out: Intracellular ROS Inhibition Rate (%). As to the method:
Intracellular ROS assay: Intracellular ROS assay was performed according to the method reported previously. RAW 264.7, a murine macrophage cell line, was obtained from the Pharmacognosy Laboratory of Prof. Mian Zhang, China Pharmaceutical University. Cells were cultured in DMEM containing 10% fetal bovine serum, 100 U/mL penicillin and 100 U/mL streptomycin at 37 °C in a humidified atmosphere containing 5% CO2 and 95% air. The cells (1 × 10^5 cells/well) were pre-incubated in the 96-well plate for 12 h. Then, cells were cultured in normal medium as normal group, or 1 μg/mL LPS as control group, or 1 μg/mL LPS plus different concentration of compounds as test group. After the cells of each group were treated for 6 h, the medium was removed, and the cells were incubated with 50 μL 2,7-Dichlorofluorescein diacetate (DCFH-DA) (10 μM) for 20 min at 37 °C. After that, the cells were washed with PBS carefully three times to remove free DCFH-DA. The absorbance was determined at 525 nm using Thermo Scientific Varioskan Flash. Apocynin was used as the positive control. The inhibitory rate (%) was calculated according to the equation: Inhibition rate (%) = [1 − (B1 − B0)/(B2 − B0)] × 100 (2) B1 refers to the absorbance of […], B0 refers to the absorbance of normal group.

For series [3], the system named is NO production in LPS-stimulated RAW 264.7 macrophages. In words: NO production in LPS-stimulated RAW 264.7 macrophages (Griess reaction). The series is classed as cell-based, murine. As to conditions: Mus musculus, RAW264.7; for inhibition at 3 µM / inhibition at 10 µM / inhibition at 30 µM / inhibition at 100 µM: LPS 1 μg/mL, 24 h, mean ± SD, n=3, read-out: NO Inhibition Rate (%); for IC50: LPS-induced RAW 264.7 macrophages, read-out: IC50 of NO production inhibition. On the technique in general: Griess reagent forms a coloured azo dye with nitrite.

For a further series, the system named is RAW 264.7 macrophages. In kind it is cell-based, murine. As to conditions: mouse, 24 h, 100 µM. The method, then: The MTT assay was used to evaluate the cell viability, as previously reported. RAW 264.7 macrophages were seeded at a density of 1 × 10^5 cells /mL in 96-well plates and cultured for 24 h with the test compound (100 µM) at 37 °C in a 5% CO2 incubator. Subsequently, 20 μL of MTT solution (5 mg/mL) was added to each well and incubated for 4 h at 37 °C and the resulted crystals were dissolved in DMSO. The optical density was measured at 490 nm using Thermo Scientific Varioskan Flash.

Results on 8 compounds are retold here after article PMC6332173, “Diterpenoids from Saliva plebeia R. Br. and Their Antioxidant and Anti-Inflammatory Activities” (Molecules, 2015).

The term IC50 denotes the concentration at which inhibition is half-maximal. What is called inhibition is the change of the read-out against control, counted positive when it falls. As to `CC(C)c1cc(O)c2c(c1O)[C@@H]1CC3C(C)(C)CCC[C@]23C(=O)O1` (stereo partly drawn) [Compound 3, isocarnosol], the IC50 in series [1] is greater than 50 µM; in series [3], 23.6 µM. Besides, the “DPPH radical scavenging rate” value came out at 3.4 ± 2.3% in series [1] (5 µM compound); 11.5 ± 2.4% in series [1] (10 µM compound); 24.5 ± 1.2% in series [1] (20 µM compound); 42.6 ± 6.0% in series [1] (30 µM compound); 49.0 ± 1.1% in series [1] (50 µM compound). The inhibition at 10 µM in series [2] was 13.5 ± 1.1%; in series [3], 29.9 ± 5%. The inhibition at 30 µM in series [2] turned out to be 16 ± 1.9%; in series [3] it was 59.4 ± 4.7%. The figures for the inhibition at 100 µM in series [2] and in series [3] were 22 ± 1.8% and 98.1 ± 6.5%, respectively. In addition, the inhibition at 3 µM in series [3] is 18.8 ± 3%. Also, the “Cell Viability (% vs. Control)” value with RAW 264.7 macrophages is on record as 106.7 ± 1.5%.
In the case of `CC(C)Cc1ccc(C(C)C(=O)O)cc1` (stereo not drawn) [ibuprofen, reference compound], in series [3], the inhibition at 30 µM is 32.3 ± 4.2%.
Take `COc1cc(C(C)=O)ccc1O` [Apocynin, reference compound]: in series [2], the inhibition at 100 µM worked out at 92.9 ± 2.6%.
Consider `CC(C)c1cc(C=O)c2c(c1O)OC(=O)C1C(C)(C)CCC[C@]21C=O` (stereo partly drawn) [Compound 4, saficinolide], for which the IC50 in series [1] was greater than 50 µM; in series [3], greater than 100 µM. Also, the “DPPH radical scavenging rate” value in series [1] (5 µM compound) was 14.5 ± 2.9%; in series [1] (10 µM compound), 15.2 ± 6.0%; in series [1] (20 µM compound), 15.5 ± 1.3%; in series [1] (30 µM compound), 7.0 ± 4.7%; in series [1] (50 µM compound) it was 13.2 ± 1.5%. Also, the figures for the inhibition at 10 µM in series [2] and in series [3] were 8.1 ± 3.2% and 11.9 ± 5.8%, respectively. The inhibition at 30 µM in series [2] amounted to 16.6 ± 4.4%; in series [3], 15.8 ± 4.4%. Also, the inhibition at 100 µM turned out to be 47.1 ± 6.1% in series [2] and 28.7 ± 5.3% in series [3]. Also, the inhibition at 3 µM in series [3] was found to be 6.3 ± 2.4%. For the same compound, in the series on RAW 264.7 macrophages, the “Cell Viability (% vs. Control)” value is listed as 101.3 ± 5.0%.
The compound `O=C1O[C@H]([C@@H](O)CO)C(O)=C1O` [Vit. C, Vitamin C, reference compound] displayed an IC50 in series [1] of 26.5 µM. Also, the “DPPH radical scavenging rate” value in series [1] (5 µM compound) turned out to be 6.1 ± 4.4%; in series [1] (10 µM compound) it was 21.6 ± 2.2%; in series [1] (20 µM compound), 43.8 ± 2.6%; in series [1] (30 µM compound), 57.6 ± 5.4%; in series [1] (50 µM compound), 89.1 ± 2.2%.
For the compound `CC(C)c1cc2c(c(O)c1O)[C@]13CO[C@H]2C[C@H]1C(C)(C)C[C@H](O)C3` [Compound 5, 2,11,12-trihydroxy-7,20-epoxy-8,11,13-abietatriene], the IC50 in series [1] was 20 µM; in series [3], greater than 100 µM. For the same compound, the “DPPH radical scavenging rate” value in series [1] (5 µM compound) is 9.2 ± 5.8%; in series [1] (10 µM compound) it was 23.8 ± 6.6%; in series [1] (20 µM compound) it was 55.4 ± 2.7%; in series [1] (30 µM compound) it was 72.6 ± 5.7%; in series [1] (50 µM compound) it was 89.6 ± 1.3%. Further, the inhibition at 10 µM is 13 ± 3.3% in series [2] and 4.9 ± 7.3% in series [3]. Moreover, the inhibition at 30 µM stood at 51.8 ± 2.2% in series [2] and 16.4 ± 5.4% in series [3]. Besides, the figures for the inhibition at 100 µM in series [2] and in series [3] were 91.3 ± 9.2% and 25.6 ± 4%, respectively. Besides, the inhibition at 3 µM in series [3] turned out to be 5.7 ± 3.8%. Moreover, the “Cell Viability (% vs. Control)” value in the series with RAW 264.7 macrophages came to 91.6 ± 2.3%.
For orientation: melting point means the temperature of the solid-liquid transition. For `CC(C)C1CC2C(CO)(CC(O)C(O)C2(C)C)c2c(O)cc(O)cc21` [Compound 1, 1,2,3,4,4α,9,10,10α-octahydro-(4α-hydroxyymethyl)-1,1-dimethyl-9-(1-methylethyl)-(2S,3S,4αR,9R,10αS)-2,3,5,7-phenanthrenetertrol], the melting point was in the range of 232 to 233 °C. In series [1], this compound showed a half-inhibitory concentration (IC50) of 29.6 µM. In addition, in series [1] (5 µM compound), the “DPPH radical scavenging rate” value was 16.6 ± 3.3%. The “DPPH radical scavenging rate” value in series [1] (10 µM compound) was found to be 21.0 ± 1.8%. In addition, in series [1] (20 µM compound), the “DPPH radical scavenging rate” value was 39.2 ± 4.1%. Besides, the “DPPH radical scavenging rate” value in series [1] (30 µM compound) is reported as 53.4 ± 8.2%. Further, in series [1] (50 µM compound), the “DPPH radical scavenging rate” value is on record as 75.4 ± 6.8%. Moreover, in series [2], the inhibition at 10 µM was determined as 24.6 ± 2.4%, the inhibition at 30 µM amounted to 56.1 ± 8.2% and the inhibition at 100 µM amounted to 64.8 ± 5.2%. In series [3], the inhibition at 3 µM is 18 ± 3.2%, the inhibition at 10 µM was determined as 42.9 ± 2.5%, the inhibition at 30 µM was determined as 68.9 ± 5.2% and the inhibition at 100 µM came out at 86.6 ± 4.9%. Further, in series [3], the IC50 is 18 µM. Also, in the series on RAW 264.7 macrophages, the “Cell Viability (% vs. Control)” value amounted to 97.3 ± 4.2%.
`CC(C)c1cc2c(c(O)c1O)[C@@]13CCCC(C)(C)[C@@H]1C[C@@H]2OC3=O` [Compound 2, carnosol]: the IC50 turned out to be 28.8 µM in series [1] and 21.5 µM in series [3]. Further, the “DPPH radical scavenging rate” value is recorded as 5.9 ± 1.6% in series [1] (5 µM compound); 15.4 ± 2.6% in series [1] (10 µM compound); 29.5 ± 1.9% in series [1] (20 µM compound); 59.3 ± 4.2% in series [1] (30 µM compound); 86.1 ± 3.3% in series [1] (50 µM compound). The inhibition at 10 µM in series [2] amounted to 29.5 ± 3.1%; in series [3], 32 ± 4.8%. The inhibition at 30 µM came out at 53.2 ± 2% in series [2] and 63.3 ± 5.3% in series [3]. Besides, the inhibition at 100 µM in series [2] was 80.3 ± 1.3%; in series [3], 103 ± 5.9%. For the same compound, the inhibition at 3 µM in series [3] was found to be 20.5 ± 2.6%. In addition, the “Cell Viability (% vs. Control)” value with RAW 264.7 macrophages is listed as 110.5 ± 0.9%.
